Measurements as given in ChEMBL document CHEMBL1155464, “Potent tricyclic pyrazole tetrazole agonists of the nicotinic acid receptor (GPR109a)” (Bioorg Med Chem Lett, 2010).
Active and inactive are the calls of the source. No cut-off for these calls is given here.

What was measured:
[1] = biological target: Hydroxycarboxylic acid receptor 3 (Homo sapiens) (UniProt P49019); experiment: Agonist activity at GPR109b; type: functional
Mus musculus [2] = experiment: Induction of vasodilation in mouse assessed as laser doppler changes in ears at 100 mg/kg; type: functional, organism-based; parameters: dose 100 mg/kg
Mus musculus [3] = species: Mus musculus; experiment: Inhibition of niacin-induced vasodilation in mouse; type: functional, organism-based
Mus musculus [4] = species: Mus musculus; experiment: Inhibition of prostaglandin-induced vasodilation in mouse; type: functional, organism-based
[5] = biological target: Hydroxycarboxylic acid receptor 3 (Homo sapiens) (UniProt P49019); experiment: Agonist activity at GPR109b at 5 to 10 uM; type: functional
[6] = Plasma clearance in mouse at 3 mg/kg, iv and 10 mg/kg, po; type: ADME, organism-based
[7] = Plasma clearance in rat at 3 mg/kg, iv and 10 mg/kg, po; type: ADME, organism-based
[8] = Plasma clearance in dog at 3 mg/kg, iv and 10 mg/kg, po; type: ADME, organism-based, Canis lupus familiaris
[9] = Plasma clearance in monkey at 3 mg/kg, iv and 10 mg/kg, po; type: ADME, organism-based, Macaca mulatta; settings: rhesus monkey
[10] = Volume of distribution at steady state in mouse at 3 mg/kg, iv and 10 mg/kg, po; type: ADME, organism-based; settings: in vivo, read-out: Vdss
[11] = Volume of distribution at steady state in rat at 3 mg/kg, iv and 10 mg/kg, po; type: ADME, organism-based; settings: in vivo, read-out: Vdss
[12] = Volume of distribution at steady state in dog at 3 mg/kg, iv and 10 mg/kg, po; type: ADME, organism-based, Canis lupus familiaris; settings: in vivo, read-out: Vdss
[13] = Volume of distribution at steady state in monkey at 3 mg/kg, iv and 10 mg/kg, po; type: ADME, organism-based, Macaca mulatta; settings: rhesus monkey, in vivo, read-out: Vdss
[14] = Half life in mouse at 3 mg/kg, iv and 10 mg/kg, po; type: ADME, organism-based; settings: in vivo
[15] = Half life in rat at 3 mg/kg, iv and 10 mg/kg, po; type: ADME, organism-based; settings: in vivo
[16] = Half life in dog at 3 mg/kg, iv and 10 mg/kg, po; type: ADME, organism-based, Canis lupus familiaris; settings: in vivo
[17] = Half life in monkey at 3 mg/kg, iv and 10 mg/kg, po; type: ADME, organism-based, Macaca mulatta; settings: rhesus monkey, in vivo
[18] = Cmax in mouse at 3 mg/kg, iv and 10 mg/kg, po; type: ADME, organism-based; settings: in vivo
[19] = Cmax in rat at 3 mg/kg, iv and 10 mg/kg, po; type: ADME, organism-based; settings: in vivo
[20] = Cmax in dog at 3 mg/kg, iv and 10 mg/kg, po; type: ADME, organism-based, Canis lupus familiaris; settings: in vivo
[21] = Cmax in monkey at 3 mg/kg, iv and 10 mg/kg, po; type: ADME, organism-based, Macaca mulatta; settings: rhesus monkey, in vivo
[22] = Oral bioavailability in mouse at 10 mg/kg; type: ADME, organism-based; settings: in vivo
[23] = Oral bioavailability in rat at 10 mg/kg; type: ADME, organism-based; settings: in vivo
[24] = Oral bioavailability in dog at 10 mg/kg; type: ADME, organism-based, Canis lupus familiaris; settings: in vivo
[25] = Oral bioavailability in monkey at 10 mg/kg; type: ADME, organism-based, Macaca mulatta; settings: rhesus monkey, in vivo
[26] = Antidyslipidemic activity in human adipocytes assessed as inhibition of isoproteranol-induced production of free fatty acids; settings: Adipocyte
Mus musculus [27] = experiment: Antidyslipidemic activity in po dosed mouse assessed as reduction of plasma free fatty acids; type: functional

Sequence of Hydroxycarboxylic acid receptor 3 (Homo sapiens) (P49019 whole entry): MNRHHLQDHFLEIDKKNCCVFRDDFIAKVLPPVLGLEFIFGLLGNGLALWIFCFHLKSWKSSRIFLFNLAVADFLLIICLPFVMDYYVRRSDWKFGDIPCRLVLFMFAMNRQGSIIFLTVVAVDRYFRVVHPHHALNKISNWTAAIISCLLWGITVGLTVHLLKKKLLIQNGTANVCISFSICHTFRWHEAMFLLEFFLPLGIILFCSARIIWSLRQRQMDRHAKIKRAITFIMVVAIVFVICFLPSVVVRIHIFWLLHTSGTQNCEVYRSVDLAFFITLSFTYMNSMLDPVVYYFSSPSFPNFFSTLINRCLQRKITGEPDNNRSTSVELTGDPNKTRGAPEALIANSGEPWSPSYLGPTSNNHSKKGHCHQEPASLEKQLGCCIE

COC[C@@H]1[C@H]2Cc3c(-c4nnn[nH]4)n[nH]c3[C@@H]12
Activity [1]: inactive

C1c2c(-c3nnn[nH]3)n[nH]c2[C@H]2C[C@@H]12 (stereo in doubt; (+)17a)
Activity [1]: inactive | Activity (Mus musculus [2]): inactive | Activity (Mus musculus [3]): Active | Activity (Mus musculus [4]): inactive

CCC[C@@H]1[C@H]2Cc3c(-c4nnn[nH]4)n[nH]c3[C@@H]12
Activity [1]: inactive | Activity [5]: Active

C1CC1[C@@H]1[C@H]2Cc3c(-c4nnn[nH]4)n[nH]c3[C@H]21
Activity [1]: inactive

C/C=C/[C@@H]1[C@H]2Cc3c(-c4nnn[nH]4)n[nH]c3[C@@H]12
Activity [1]: inactive

C1c2c(-c3nnn[nH]3)n[nH]c2[C@H]2C[C@@H]12 (stereo in doubt; (+)17a) [3-(1H-TETRAZOL-5-YL)-4,4A,5,5A-TETRAHYDRO-1H-CYCLOPROPA[4,5]CYCLOPENTA[1,2-C]PYRAZOLE (STRUCTURAL MIX)]
clearance [6]: 61.6 mL/min/kg | clearance [7]: 25.5 mL/min/kg | clearance [8]: 12.4 mL/min/kg | clearance [9]: 13.9 mL/min/kg | Vd [10]: 3.4 L/kg | Vd [11]: 0.34 L/kg | Vd [12]: 0.53 L/kg | Vd [13]: 0.96 L/kg | half-life [14]: 2.4 h | half-life [15]: 1.9 h | half-life [16]: 1.9 h | half-life [17]: 7.3 h | Cmax [18]: 2 µM | Cmax [19]: 4.9 µM | Cmax [20]: 36.9 µM | Cmax [21]: 11.7 µM | bioavailability [22]: 97% | bioavailability [23]: 37% | bioavailability [24]: > 100% | bioavailability [25]: > 100% | IC50 [26]: 90 nM | ED50 (Mus musculus [27]): 0.52 mg/kg

CCCC[C@@H]1[C@H]2Cc3c(-c4nnn[nH]4)n[nH]c3[C@@H]12
Activity [1]: inactive | Activity [5]: Active

CCCCC[C@@H]1[C@H]2Cc3c(-c4nnn[nH]4)n[nH]c3[C@@H]12
Activity [1]: inactive

C[C@H]1[C@H]2Cc3c(-c4nnn[nH]4)n[nH]c3[C@@H]12
Activity [1]: inactive

C1c2c(-c3nnn[nH]3)n[nH]c2C2CC12 (racemic)
Activity [1]: inactive

C=C[C@H]1[C@H]2Cc3c(-c4nnn[nH]4)n[nH]c3[C@@H]12
Activity [1]: inactive

C1c2c(-c3nnn[nH]3)n[nH]c2[C@H]2C[C@@H]12 (stereo in doubt; (-)17a)
Activity [1]: inactive

C1Cc2[nH]nc(-c3nn[nH]n3)c2C1
Activity [1]: inactive | IC50 [26]: 870 nM | ED50 (Mus musculus [27]): 3.1 mg/kg

C=C[C@@H]1[C@H]2Cc3c(-c4nnn[nH]4)n[nH]c3[C@@H]12
Activity [1]: inactive

CC1(C)[C@@H]2c3[nH]nc(-c4nnn[nH]4)c3C[C@@H]21
Activity [1]: inactive

O=C(O)c1cccnc1 [NIACIN]
Activity [1]: inactive | IC50 [26]: 60 nM

CC(C)C[C@H]1C2Cc3c(-c4nnn[nH]4)n[nH]c3[C@H]21 (stereo not given in full)
Activity [1]: inactive

CC(C)C[C@@H]1[C@H]2Cc3c(-c4nnn[nH]4)n[nH]c3[C@H]21
Activity [1]: inactive | Activity [5]: Active

C[C@@H]1[C@H]2Cc3c(-c4nnn[nH]4)n[nH]c3[C@@H]12
Activity [1]: inactive

CCCCC[C@H]1[C@H]2Cc3c(-c4nnn[nH]4)n[nH]c3[C@H]21
Activity [1]: inactive

C1CCC2(C1)[C@@H]1c3[nH]nc(-c4nnn[nH]4)c3C[C@@H]12
Activity [1]: inactive

C=CC[C@@H]1[C@H]2Cc3c(-c4nnn[nH]4)n[nH]c3[C@@H]12
Activity [1]: inactive

CC(C)CC[C@@H]1C2Cc3c(-c4nnn[nH]4)n[nH]c3[C@H]21 (stereo not given in full)
Activity [1]: inactive

CC[C@@H]1[C@H]2Cc3c(-c4nnn[nH]4)n[nH]c3[C@@H]12
Activity [1]: inactive

C=CC[C@H]1[C@H]2Cc3c(-c4nnn[nH]4)n[nH]c3[C@H]21
Activity [1]: inactive
